Molecular target: T1, recombinant human seprase (rhFAP) (Homo sapiens, UniProt Q12884)
T1 sequence (Q12884 26-760 limits assumed): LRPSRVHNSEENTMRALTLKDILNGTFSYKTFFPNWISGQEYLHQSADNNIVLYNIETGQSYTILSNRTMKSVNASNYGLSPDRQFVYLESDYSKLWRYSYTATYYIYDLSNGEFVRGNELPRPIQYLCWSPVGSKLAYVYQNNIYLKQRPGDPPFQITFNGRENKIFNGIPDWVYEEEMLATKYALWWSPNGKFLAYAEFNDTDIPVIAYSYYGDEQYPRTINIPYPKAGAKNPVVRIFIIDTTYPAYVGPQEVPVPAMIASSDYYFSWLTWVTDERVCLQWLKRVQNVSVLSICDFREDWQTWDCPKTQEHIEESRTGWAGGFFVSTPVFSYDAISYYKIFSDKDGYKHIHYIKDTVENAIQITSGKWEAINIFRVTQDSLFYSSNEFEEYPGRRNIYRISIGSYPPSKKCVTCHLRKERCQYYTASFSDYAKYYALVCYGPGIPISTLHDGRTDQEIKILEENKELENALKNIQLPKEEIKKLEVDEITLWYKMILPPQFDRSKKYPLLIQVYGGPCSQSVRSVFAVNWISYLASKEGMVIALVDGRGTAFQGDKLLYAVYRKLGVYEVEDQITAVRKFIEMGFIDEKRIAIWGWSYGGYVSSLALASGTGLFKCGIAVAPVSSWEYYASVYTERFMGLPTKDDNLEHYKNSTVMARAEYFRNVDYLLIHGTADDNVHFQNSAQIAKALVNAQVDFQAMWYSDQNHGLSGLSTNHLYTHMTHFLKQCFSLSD
Assay: Inhibition of enzymatic activity of recombinant human seprase on Z-Gly-Pro-AMC (fluorescence)
Format: biochemical
Details: for IC50: in vitro data against seprase, read-out: FAP (IC50 nM); for remaining activity at 0.005 µM: inhibitor 0.005 μM; for remaining activity at 0.005 µM / remaining activity at 0.05 µM / remaining activity at 0.5 µM / remaining activity at 5 µM / remaining activity at 500 µM: initial velocity normalized to control without test compound, 50 μM Z-Gly-Pro-AMC, read-out: Percent of Control; for remaining activity at 0.05 µM: inhibitor 0.05 μM; for remaining activity at 0.5 µM: inhibitor 0.5 μM; for remaining activity at 5 µM: inhibitor 5 μM; for remaining activity at 500 µM: inhibitor 500 μM
Protocol: In vitro assaying of compounds for inhibition of dipeptidyl peptidase activity of seprase and DPP-IV can be achieved following the described in Edosada C. Y. et al. J. Biolog. Chem. 2006, 281, 7437-7444.
Selected test compounds were examined for their ability to inhibit the enzymatic activity of recombinant human seprase (rhFAP) on the substrate, benzyloxycarbonyl-Gly-Pro-7-amido-4-methylcoumarin (Z-Gly-Pro-AMC). In brief, 10 μg rhFAP was added to 50 μM Z-Gly-Pro-AMC in the presence of increasing concentrations of test compound, and enzymatic activity was determined by monitoring fluorescence (Ex. 355 nm/Em. 460 nm). Compound 1051 is the known inhibitor, Cbz-Gly-boroproline. Initial velocity of the reaction was calculated and normalized to control reactions conducted in the absence of test compound.
The inhibition was measured by the half maximal inhibitory concentration (IC50) of a compound of interest. The IC50 indicates how much of a particular compound is needed to inhibit seprase by half.

Row | IC50 | Compound | further results
1 | 7 nM | O=C(NCC(=O)N1CCCC1B(O)O)c1ccccc1I (stereo not drawn) [Compound 1023, 1-(2-(2-iodobenzamido)acetyl)pyrrolidin-2-ylboronic acid] | remaining activity at 0.005 µM: 42%; remaining activity at 0.05 µM: 0%; remaining activity at 0.5 µM: 0%; remaining activity at 5 µM: 0%; remaining activity at 500 µM: 0%
2 | 3 nM | O=C(NCC(=O)N1CCCC1B(O)O)c1ccc(I)cc1 (stereo not drawn) [Compound 1024, 1-(2-(4-iodobenzamido)acetyl)pyrrolidin-2-ylboronic acid] | IC50 values against seprase (in words): low nanomolar range; remaining activity at 0.005 µM: 22%; remaining activity at 0.05 µM: 0%; remaining activity at 0.5 µM: 0%; remaining activity at 5 µM: 0%; remaining activity at 500 µM: 0%
3 | 2 nM | O=C(NCC(=O)N1CCCC1B(O)O)c1cccc(I)c1 (stereo not drawn) [Compound 1025, 1-(2-(3-iodobenzamido)acetyl)pyrrolidin-2-ylboronic acid] | remaining activity at 0.005 µM: 0%; remaining activity at 0.05 µM: 0%; remaining activity at 0.5 µM: 0%; remaining activity at 5 µM: 0%; remaining activity at 500 µM: 0%
4 | 3 nM | O=C(NCC(=O)N1CCCC1B(O)O)c1ccc(I)cc1Cl (stereo not drawn) [Compound 1026, 1-(2-(2-chloro-4-iodobenzamido)acetyl)pyrrolidin-2-ylboronic acid] | –
5 | 5 nM | O=C(NCC(=O)N1CCCC1B(O)O)c1cc(I)ccc1Cl (stereo not drawn) [Compound 1027, 1-(2-(2-chloro-5-iodobenzamido)acetyl)pyrrolidin-2-ylboronic acid] | –
6 | 5 nM | O=C(NCC(=O)N1CCCC1B(O)O)c1cc(I)ccc1Br (stereo not drawn) [Compound 1028, 1-(2-(2-bromo-5-iodobenzamido)acetyl)pyrrolidin-2-ylboronic acid] | –
7 | 8 nM | O=C(NCC(=O)N1CCCC1B(O)O)c1cc(I)ccc1F (stereo not drawn) [Compound 1029, 1-(2-(2-fluoro-5-iodobenzamido)acetyl)pyrrolidin-2-ylboronic acid] | –
8 | 2 nM | O=C(NCC(=O)N1CCCC1B(O)O)c1ccc2cc(I)ccc2c1 (stereo not drawn) [Compound 1030, 1-(2-(6-iodo-2-naphthamido)acetyl)pyrrolidin-2-ylboronic acid] | IC50 values against seprase (in words): low nanomolar range
9 | 262 nM | N#Cc1ccc(I)cc1C(=O)NCC(=O)N1CCCC1B(O)O (stereo not drawn) [Compound 1031, 1-(2-(2-cyano-5-iodobenzamido)acetyl)pyrrolidin-2-ylboronic acid] | –
10 | 11 nM | Cc1ccc(I)cc1C(=O)NCC(=O)N1CCCC1B(O)O (stereo not drawn) [Compound 1032, 1-(2-(5-iodo-2-methylbenzamido)acetyl)pyrrolidin-2-ylboronic acid] | –
11 | 500 nM | O=C(NCC(=O)N1CCCC1B(O)O)c1cc(I)ccn1 (stereo not drawn) [Compound 1033, 1-(2-(4-iodopicolinamido)acetyl)pyrrolidin-2-ylboronic acid] | –
12 | 11 nM | O=C(NCC(=O)N1CCCC1B(O)O)Nc1ccc(I)cc1 (stereo not drawn) [Compound 1034, 1-(2-(3-(4-iodophenyl)ureido)acetyl)pyrrolidin-2-ylboronic acid] | –
13 | 340 nM | NC(Cc1ccc(I)cc1)C(=O)NCC(=O)N1CCCC1B(O)O (stereo not drawn) [Compound 1035, 1-(2-(2-amino-3-(4-iodophenyl)propanamido)acetyl)pyrrolidin-2-ylboronic acid] | –
14 | 37 nM | O=C(CN1CCN(Cc2cccc(I)c2)CC1)N1CCCC1B(O)O (stereo not drawn) [Compound 1036, 1-(2-(4-(3-iodobenzyl)piperazin-1-yl)acetyl)pyrrolidin-2-ylboronic acid] | –
15 | 511 nM | N#C[C@@H]1CCCN1C(=O)CNC(=O)c1ccc(I)cc1 [Compound 1039, (S)-N-(2-(2-cyanopyrrolidin-1-yl)-2-oxoethyl)-4-iodobenzamide] | –
16 | 35 nM | N#C[C@@H]1CCCN1C(=O)CNC(=O)c1cccc(I)c1 [Compound 1040, (S)-N-(2-(2-cyanopyrrolidin-1-yl)-2-oxoethyl)-3-iodobenzamide] | IC50 values against seprase (in words): low nanomolar range
17 | 692 nM | N#C[C@@H]1CCCN1C(=O)CNC(=O)c1ccc(I)cc1Cl [Compound 1041, (S)-2-chloro-N-(2-(2-cyanopyrrolidin-1-yl)-2-oxoethyl)-4-iodobenzamide] | –
18 | 785 nM | N#C[C@@H]1CCCN1C(=O)CNC(=O)c1cc(I)ccc1Cl [Compound 1042, (S)-2-chloro-N-(2-(2-cyanopyrrolidin-1-yl)-2-oxoethyl)-5-iodobenzamide] | –
19 | 115 nM | N#C[C@@H]1CCCN1C(=O)CNC(=O)c1ccccc1I [Compound 1043, (S)—N-(2-(2-cyanopyrrolidin-1-yl)-2-oxoethyl)-2-iodobenzamide] | –
20 | 23700 nM | N#Cc1ccc(I)cc1C(=O)NCC(=O)N1CCC[C@H]1C#N [Compound 1044, (S)-2-cyano-N-(2-(2-cyanopyrrolidin-1-yl)-2-oxoethyl)-5-iodobenzamide] | –
21 | 1440 nM | N#C[C@@H]1CCCN1C(=O)CNC(=O)c1cc(I)cc(C(=O)O)c1 [Compound 1045, (S)-3-(2-(2-cyanopyrrolidin-1-yl)-2-oxoethylcarbamoyl)-5-iodobenzoic acid] | –
22 | 970 nM | N#C[C@H]1CCCN1C(=O)CNC(=O)c1cccc(I)c1 [Compound 1046, (R)-N-(2-(2-cyanopyrrolidin-1-yl)-2-oxoethyl)-3-iodobenzamide] | –
23 | 7410 nM | N#C[C@@H]1CCCN1C(=O)CNC(=O)[C@@H](CC(=O)O)NC(=O)c1cccc(I)c1 [Compound 1048, (R)-4-(2-((S)-2-cyanopyrrolidin-1-yl)-2-oxoethylamino)-3-(3-iodobenzamido)-4-oxobutanoic acid] | –
24 | 953 nM | N#C[C@@H]1CCCN1C(=O)CNCc1cccc(I)c1 [Compound 1049, (S)-1-(2-(3-iodobenzylamino)acetyl)pyrrolidine-2-carbonitrile] | –
25 | 1150 nM | N#C[C@@H]1CCCN1C(=O)CN1CCN(Cc2cccc(I)c2)CC1 [Compound 1050, (S)-1-(2-(4-(3-iodobenzyl)piperazin-1-yl)acetyl)pyrrolidine-2-carbonitrile] | –
26 | 67 nM | O=C(NCC(=O)N1CCCC1B(O)O)OCc1ccccc1 (stereo not drawn) [Compound 1051, Cbz-Gly-boroproline, reference compound] | remaining activity at 0.005 µM: 81%; remaining activity at 0.05 µM: 46%; remaining activity at 0.5 µM: 1%; remaining activity at 5 µM: 0%; remaining activity at 500 µM: 0%
27 | 24500 nM | NC(Cc1ccc(I)cc1)C(=O)NCC(=O)N1CCCC1N (stereo not drawn) [Compound 1061] | –
28 | 20 nM | Re(CO)3[1-(2-(6-(bis((1-methyl-1H-imidazol-2-yl)methyl)amino) hexanamido)acetyl)pyrrolidin-2-ylboronic acid] [Compound 1018] | –
29 | 21 nM | Re(CO)3[1-(2-(6-(bis(pyridin-2-ylmethyl)amino)hexanamido) acetyl)pyrrolidin-2-ylboronic acid] [Compound 1014] | –

Row | Compound | IC50 | further results
30 | Re(CO)3-2,2′-(2,2′-(6-(2-(2-boronopyrrolidin-1-yl)-2-oxoethylamino)-6-oxohexyl azanediyl)bis(methylene)bis(1H-imidazole-2,1-diyl))diacetic acid [Compound 1020] | 4 nM | –
31 | Re(CO)3-(S)-2,2′-(2,2′-(6-(2-(2-cyanopyrrolidin-1-yl)-2-oxoethylamino)-6-oxohexylazanediyl)bis(methylene)bis(1H-imidazole-2,1-diyl))diacetic acid [Compound 1022] | 236 nM | –

— patent US20100098633A1, “SELECTIVE SEPRASE INHIBITORS” (Molecular Insight Pharmaceuticals, Inc., priority 2008, published 2010)
